Experimental data: patent publication EP1894572B1, “THERAPEUTIC AGENT AND/OR PROPHYLACTIC AGENT FOR NEUROGENIC PAIN” (Asahi Kasei Pharma Corporation, priority 2005, dated 2013)
Like-named read-outs stand apart in the source and are kept apart here. Positions of bridges follow the written chain, without caps; N, C: chain ends. Non-standard residues stand in square brackets, D forms with d. Residues, ends and D or L forms follow the SMILES beside them. Asu = N[C@@H](CCCCCC(=O)O)C(=O)O

Experiments:
[1] = rat, in vivo
[2] = rat, in vivo; remark: listed apart in the source
Description: Using normal rats (each 4 rats) which were in the same week old in initiation of administration of elcatonin as in Examples 1 and 2, dose of elcatonin not varying serum calcium value was examed in the case of single subcutaneous administration (administered over 10 seconds). […] Further, the same test was conducted excepting that blood collection was carried out 30 minutes after the administration. Measurement of serum calcium value was conducted using calcium C-test wako (Wako).

[3] = rat, in vivo; remark: listed apart in the source
[4] = human, in vivo
[5] = tested on: chronic constriction injury model (CCI model); experiment: CCI model, Randall Selitto method, intravenous continuous drip; type: in vivo, rat; details: neuropathic pain; after effect once manifested
Description: Preparing of the CCI model and elcatonin administration initiation period were the same as in Example 1. A cannulation was performed on cervical vein, and on 2nd day after cannulation, elcatonin (0.75 U/kg/week) was administered by intravenous continuous drip at 1 mL/body/24 hours, and withdrawal pressure by Randall Slitto method was measured 4, 8, 12 and 24 hours after.

[6] = Blood retention time after intermittent administration; type: in vivo
Description: From Comparative Example 1 described later, it has been considered that an analgesic action by intermittent administration of calcitonin is affected by accumulation of an effect in each administration. The blood retention time by intermittent administration is about 2 hours. Therefore, also included in the range of the present invention is an administration method in which continuous administration of 2 hours or more and less than 8 hours is repeated and accumulated duration of continuous administration within 24 hours is 8 hours or more.

[7] = cited from earlier work

For `CC(C)C[C@H](NC(=O)[C@H](CCCCN)NC(=O)CNC(=O)[C@H](CC(C)C)NC(=O)[C@@H](NC(=O)[C@@H]1CCCCCC(=O)N[C@@H](CO)C(=O)N[C@@H](CC(N)=O)C(=O)N[C@@H](CC(C)C)C(=O)N[C@@H](CO)C(=O)N[C@@H]([C@@H](C)O)C(=O)N1)C(C)C)C(=O)N[C@@H](CO)C(=O)N[C@@H](CCC(N)=O)C(=O)N[C@@H](CCC(=O)O)C(=O)N[C@@H](CC(C)C)C(=O)N[C@@H](Cc1c[nH]cn1)C(=O)N[C@@H](CCCCN)C(=O)N[C@@H](CC(C)C)C(=O)N[C@@H](CCC(N)=O)C(=O)N[C@H](C(=O)N[C@@H](Cc1ccc(O)cc1)C(=O)N1CCC[C@H]1C(=O)N[C@@H](CCCNC(=N)N)C(=O)N[C@H](C(=O)N[C@@H](CC(=O)O)C(=O)N[C@H](C(=O)NCC(=O)N[C@@H](C)C(=O)NCC(=O)N[C@H](C(=O)N1CCC[C@H]1C(N)=O)[C@@H](C)O)C(C)C)[C@@H](C)O)[C@@H](C)O` [elcatonin, 1-butylic acid-7-(L-2-aminobutylic acid)-26-L-aspartic acid-27-L-valine-29-L-alaninecalcitonin] (SNLST[Asu]VLGKLSQELHKLQTYPRTDVGAGTP-NH2; lactam N-6), the body weight [1] was “no change in body weight was found”, the body weight increase [1] was “suppression of body weight increase became remarkable” and the “serum calcium at effective dose on neuropathic pain in intermittent administration” value [2] was “lowered to normal value (8.5 to 10.5 mg/dl) or less”. The “serum calcium value relative to normal value” ([2]; sc) was “below a normal value” and the serum calcium concentration [3] was “did not affect serum calcium amount at all”.

For calcitonin, the “calcitonin dose altering serum calcium values in humans” value [4] was 0.093 mU/kg/second, the “continuation of analgesic effect during the drug withdrawal period” value [5] was “continues for at least one week” and the blood retention time [6] was “about 2 hours”. For the same compound, the serum calcium ([7]; bone metastasis cancer patient, s.c. 400 U/man/day mixed into morphine continuous administration) was “a significant decrease in serum calcium is recognized” and the serum calcium ([7]; renal osteopathy patient, drip intravenous 40 U/man/5 hours) was “no significant decrease in serum calcium is recognized”.
